Measured values: patent publication US6992218B2, “Method for obtaining aqueous formulations of oxidation-sensitive active principles” (Pharmatop SCR, priority 2000, dated 2006)
Like-named read-outs stand apart in the source and are kept apart here. Blank lines part the entries; values can stand above or below the compound they belong to.

How the values were obtained:
[1] = Example IX: stability of 1% Dobutamine sulphate solution at 50° C.; type: physicochemical
Procedure: A Dobutamine sulphate solution is prepared by dissolving 1 g Dobutamine in 50 ml of water and 19 ml of a 0.10% sodium ascorbate solution is added, with continuous bubbling of nitrogen. Then 25 mg hydrated cysteine chlorhydrate and 70 mg hydrated sodium citrate are added, then 700 mg sodium chloride to ensure isotonicity. The solution is made up to 100 ml by the addition of distilled water for injectable preparations.
It is filled into 100 ml bottles under nitrogen until the residual oxygen content is below 0.8 ppm. The bottles are then stoppered under vacuum (approx. 10,000 Pa) and sterilized at 121° C. for 20 minutes.
After removal from the autoclave, the bottles are kept in darkness in a thermostatic cupboard at 50° C.
An evaluation is made of absorption at 308 nm as an indication of oxidation into secondary products, the residual oxygen content and the residual cysteine content immediately after sterilization, then after being kept for 14 days at 50° C.
Coloration remains slight and reduces as the pH increases.

[2] = Example VI: buffered paracetamol + cysteine solutions without deoxygenation; type: physicochemical; conditions: 10 mg/ml paracetamol + 0.25 mg/ml cysteine, no inert gas, darkness 25° C. 3 days
Procedure: A quantity of sodium citrate (in the form of dihydrated disodic citrate) was added to 10 mg/ml aqueous paracetamol solutions, made isotonic by NaCl and stabilized by the addition of cysteine hydrochlorhide (0.25 mg/ml) suitable for adjusting the pH to 5.5. […] Comparative solutions were prepared without sodium citrate or replacing the citrate ions by equimolar quantities to those of the citrate, of either sodium acetate, or sodium hydrogenophosphate; in all cases adjusting the pH to a value of 5.5 by the addition of sodium hydroxide or hydrochloric acid.
The solutions were not subjected to bubbling with inert gas (nitrogen) and were kept in darkness at 25° C. for 3 days.

[3] = Example V: residual cysteine in buffered aqueous cysteine solutions; type: physicochemical; conditions: 0.25 mg/ml cysteine, approx. 7 ppm O2, darkness 25° C. 3 days
Procedure: A 0.25 mg/ml aqueous cysteine solution was adjusted to pH 5.5, made isotonic by sodium chloride and buffered using as a buffering agent: dehydrated sodium citrate (0.70 mg/ml), sodium acetate, sodium hydrogenophosphate, in quantities equimolar to that of the citrate. […] They were kept in darkness at 25° C. for 3 days.

[4] = Example III: stability of paracetamol solution with or without citrate ions; type: physicochemical; conditions: O2 approx. 0.4 ppm, sterilized
Procedure: Thus a 10 mg/ml paracetamol solution adjusted to pH 5.5 by hydrochloric acid was subjected to bubbling with nitrogen until an oxygen content of approximately 0.4 ppm was obtained. The bottles were sterilized at 121° C. for 15 minutes and kept at ambient temperature. […] After bubbling with nitrogen, the residual oxygen content is of the order of 0.4 ppm. Afterwards the solution is packaged into bottles under vacuum and sterilized at 121° C. for 15 minutes. The bottles are kept for 67 days at ambient temperature.

[5] = for coloration: sterilized 121° C. 15 min
Procedure: A 10 mg/ml aqueous paracetamol solution is prepared. Adjustment to pH 5.5 is carried out by the addition of HCl, and buffering by the addition of sodium hydrogenophosphate.
Deoxygenation is then carried out by bubbling with nitrogen, until a residual oxygen content of approximately 0.2 ppm is obtained. After the bottles are filled with the solution during prolonged bubbling with nitrogen, they are sterilized at 121° C. for 15 minutes.
In another test, the paracetamol solution, after being subjected to bubbling with nitrogen, has been packaged under nitrogen.

[6] = Paracetamol solution with trisodic citrate kept at 40° C. (general statement); type: physicochemical
Procedure: In particular, in the case of paracetamol, after the addition of trisodic citrate at a concentration of 70 mg/100 ml of solution, the residual cysteine concentration is approximately double than that of preparations without citrate, no coloration appeared, even after 7 weeks at 40° C., and there was no variation in the concentration of paracetamol.

[7] = ambient temperature under light, and 70° C. in darkness; nitrogen bubbling, filling under nitrogen, antioxidant added; cited from earlier work
[8] = Procedure: A 10 mg/ml aqueous paracetamol solution adjusted to pH 5.5 by sodium hydroxide and buffered at this value by sodium acetate was made isotonic by a sufficient quantity of sodium chloride, then an antioxidant is added to it, in this case 0.20 mg/ml cysteine chlorhydrate. This solution was subjected to bubbling with nitrogen then placed under vacuum (low pressure approx. 550 mm of Hg) before stoppering the bottles. […] After sterilization, the bottles containing this solution were kept for 24 months at 25° C.
[9] = pH 5.5, sodium hydrogenophosphate
[10] = trisodic citrate 70 mg/100 ml, after 7 weeks at 40° C.

- degradation of the Dobutamine in heat ([1]; 1% solution with ascorbate, cysteine, citrate, vacuum, sterilized 121° C. 20 min, kept at 50° C.): no degradation
- secondary peaks by liquid chromatography, absorption at 308 nm ([1]; degree decreases as the pH increases): appearance of secondary peaks
- coloration ([1]; reduces as the pH increases): slight
Compound: CC(CCc1ccc(O)cc1)NCCc1ccc(O)c(O)c1 (stereo not drawn) [Dobutamine]

- residual cysteine ([2]; pH 5.5, citrate approx. 0.7 mg/ml): 22%
- residual cysteine ([2]; pH 5.5, non-buffered): 42%
- residual cysteine ([2]; pH 5.5, sodium acetate): 17%
- residual cysteine [2, 9]: 21%
- residual cysteine content ([3]; pH 5.5, citrate 0.70 mg/ml): lowest
- residual cysteine content ([3]; pH 5.5, non-buffered): 15%
- residual cysteine content ([3]; pH 5.5, sodium acetate): 18%
- residual cysteine content [3, 9]: 21%
Compound: N[C@@H](CS)C(=O)O [cysteine]

- coloration ([4]; 10 mg/ml with citric acid/sodium citrate, under vacuum, 67 days at ambient temperature): perfectly colourless
- coloration ([4]; 10 mg/ml, pH 5.5 by HCl, no citrate, 9 days at ambient temperature): yellow-pink
- coloration ([5]; 10 mg/ml, pH 5.5, no antioxidant, O2 approx. 0.2 ppm, 6 months at 25° C.): colourless
- paracetamol content ([5]; 10 mg/ml, pH 5.5, no antioxidant, O2 approx. 0.2 ppm, sterilized, 6 months at 25° C.): no change
- content of degradation products of paracetamol determined by HPLC ([5]; 6 months, 10 mg/ml, pH 5.5): lower than 0.015 % of the paracetamol
- coloration ([5]; packaged under nitrogen, vacuum < 10,000 Pa, O2 0.16 ppm, 8 days at 30° C.): colourless
- residual cysteine concentration versus preparations without citrate ([6]; trisodic citrate 70 mg/100 ml of solution): approximately double
- coloration [6, 10]: no coloration
- variation in the concentration of paracetamol [6, 10]: no variation
- paracetamol content ([8]; 0.20 mg/ml cysteine chlorhydrate, O2 approx. 1.5 ppm, sterilized, 24 months at 25° C.): 100 % of the original value
- coloration ([8]; 10 mg/ml, pH 5.5, acetate buffer, 0.20 mg/ml cysteine chlorhydrate, vacuum, O2 approx. 1.5 ppm, sterilized, 24 months at 25° C.): colourless
Compound: CC(=O)Nc1ccc(O)cc1 [paracetamol]
- time for which aqueous solutions are stable [7]: 48 h
- degradation products of the paracetamol measured by HPLC ([8]; 24 months, 10 mg/ml, pH 5.5): less than 0.02 % of the paracetamol content
